According to US20230393120A1, “A HUMAN VASCULAR INJURY-ON-A-CHIP MODEL OF HEMOSTASIS” (THE TRUSTEES OF THE UNIVERSITY OF PENNSYLVANIA, priority 2020, published 2023):
Where a SMILES comes first, the peptide text is derived from it. Bridges are numbered along the chain shown (N, C = ends). [ ]: non-standard residue; d: D form. hArg = N=C(N)NCCCC[C@H](N)C(=O)O; Mpa = O=C(O)CCS

System: injury-induced platelet and fibrin deposition (hemostatic plug formation), human whole blood
Test: Drug testing in the vascular injury-on-a-chip perfused with drug-containing whole blood
Type: cell-based
Source text: Human vascular injury-on-a-chip as a drug screening platform: anticoagulants and antiplatelet agents can be used for treating or preventing thrombotic events in the arterial and venous circulations. However, anticoagulants and antiplatelet agents can increase the risk of bleeding, especially when used in combination. The disclosed vascular injury-on-a-chip model provides a potential tool for evaluating these adverse effects, offering a complementary approach to animal models. Such features were tested using Hirudin and eptifibatide as model compounds representing anticoagulant and antiplatelet drugs, respectively. The disclosed subject matter was used to measure and compare the extent of injury-induced platelet and fibrin deposition when the disclosed devices were perfused with drug-containing whole blood. […] For quantitative analysis, we devised an injury closure score ranging between 0 and 2, which corresponds to fully open and fully closed, respectively. The hirudin-treated devices yielded an average score of […] the untreated control group scored 1.138. (FIG. 5E), indicating the adverse effects of Hirudin on the formation of competent hemostatic plugs.
Preparation of blood vessel-on-a-chip: Assembled devices were autoclaved for sterilization prior to cell culture. To increase the strength of interfacial adhesion between collagen gel and PDMS, dopamine hydrochloride (Sigma-Aldrich) solution (2.0 mg/mL w/v in 10 mM Tris-HCl buffer, pH 8.5) was injected into the middle compartment of the device and incubated for 2 hours at room temperature. Next, 6 mg/ml of rat-tail collagen type I containing 2.5% (v/v) lipidated tissue factor (Dade Innovin Reagent, Siemens) was introduced into the polydopamine-treated chamber and polymerized at 37° C. for 30 minutes. After gelation, HUVECs suspended in EGM-2 medium were seeded into the intravascular channel at a density of 1.6-1.8×10^6 cells/ml and allowed to settle and adhere to the surface of the collagen hydrogel by rotating the device by 90°. Following cell attachment, the device was perfused with medium to form a confluent endothelial monolayer. For TNF-a experiments, HUVECs were seeded on a tissue factor-free collagen gel and treated overnight with 1 ng/ml of TNF-a (Peprotech).
Healthy donor blood preparation: The blood was obtained via venipuncture into a syringe containing 3.8% sodium citrate (9:1) and 40 μg/ml of corn trypsin inhibitor (CTI). Right before perfusion through the device, the blood was recalcified (15 mM CaCl2) for 3 minutes. Fluorescently-labeled antibodies to detect platelets (a-CD61-568), P-selectin (a-CD62P-647), and fibrin (a-Fibrin-488) were added at a final concentration of 1 μg/ml. If inhibitors were used in the experiment, they were added in the recalcification step as well. The final concentration for eptifibatide acetate was 100 μM, and for Hirudin was 4 μg/ml.
Puncture injury and global hemostasis assessment: For precise spatial control of injury, a 30 G blunt needle was inserted between the two PM DS channel layers during device assembly and used as a sheath that guides the insertion of a microneedle. To induce puncture injury, either a 0.12 or 0.20 mm acupuncture needle was inserted into the guide needle and gently pushed towards the extravascular compartments in a controlled manner either to pierce through the endothelium and the entire thickness of the collagen hydrogel or to superficially injure the endothelial layer. Following injury, the intravascular and extravascular channels were perfused with recalcified blood and HBSS buffer (20 mM HEPES, 2 mM Ca2+), respectively using two independently controlled syringe pumps (Fusion 400, Chemyx & BS-8000 120 V, Braintree Scientific).
Fluorescently-labeled antibodies to CD61, P-selectin, and fibrin were added to the blood prior to perfusion through the microfluidic device to visualize platelet deposition, platelet activation, and fibrin accumulation. […]

Compound | contraction of the vessel wall (matrix deformation, normalized injury area over time) (eptifibatide 100 μM) | platelet activation (eptifibatide 100 μM in whole blood) | fibrin accumulation (eptifibatide 100 μM in whole blood, relative to control) | platelet accumulation (eptifibatide 100 μM in whole blood, vs control) | injury channel closure, compared with Hirudin (eptifibatide 100 μM vs Hirudin 4 μg/ml) | state of the injury channel (eptifibatide 100 μM, confocal images) | injury score (0 fully open, 1 partially closed, 2 fully closed) (eptifibatide 100 μM, final time point) | fibrin accumulation (Hirudin 4 μg/ml in whole blood, vs control) | platelet accumulation (Hirudin 4 μg/ml in whole blood, vs control without the drug) | platelet activation (Hirudin 4 μg/ml in whole blood, vs control without the drug, P-selectin MFI) | state of the injury channel openings (Hirudin 4 μg/ml, confocal images) | injury closure (injury closure score 0-2, fully open to fully closed) (Hirudin 4 μg/ml, final time point)
N=C(N)NCCCC[C@@H]1NC(=O)CCSSC[C@@H](C(N)=O)NC(=O)[C@@H]2CCCN2C(=O)[C@H](Cc2c[nH]c3ccccc23)NC(=O)[C@H](CC(=O)O)NC(=O)CNC1=O [eptifibatide] ([Mpa][hArg]GDWPC-NH2; disulfide 1-7) | negligible contraction | reduction | did not change | markedly reduce | to a greater extent than Hirudin | remained open | 0 |  |  |  |  | 
Hirudin |  |  |  |  |  |  |  | drastically reduce | no statistically significant changes | no statistically significant changes | intravascular end of the injury channel remained open, but platelet aggregates blocked the extravascular opening | inhibits
